According to patent US8110550B2, “HDAC inhibitors and hormone targeted drugs for the treatment of cancer” (University of Maryland, Baltimore, priority 2007, dated 2012):
Entries after “also recorded” stand apart in the source; their conditions may differ. Read-outs that look alike come from different tables or passages of the source.

How the values were obtained:
[1] = system: Hs 578T; assay: MTT cell proliferation assay, Hs 578T; assay type: cell-based; conditions: Her-2 status +, read-out: IC50 values for inhibition of ER-cell proliferation, Hs 578T
Method: (§1) MTT assay was performed to measure viability of breast cancer cells after treatment with various test compounds (Sabnis et al. 2005). IC50 and IC25 values for inhibitors is calculated from the linear regression line of the plot of percentage inhibition versus log inhibitor concentration. These IC50 values is used for combination or sequencing studies. The effect of combination or sequence of treatment is determined at IC25 of each agent.
(§2) Exemplary ER negative cell lines (MDA-MB-231) were used. For a cell proliferation assay, 10^4 cells were plated in a 96 well plate and treated with indicated drugs for 6 days. The medium was replaced after 3 days. On day 7, 500 μg/ml of MTT solution was added to each well and cells incubated for 3 hours. The tetrazolium dye trapped inside the mitochondria of the cells was dissolved in DMSO and the absorbance was measured at 560 nm.

[2] = system: aromatase (CYP19); assay: Western immunoblotting for aromatase protein expression in MDA-MB-231 cells; assay type: cell-based; conditions: 24 hour treatment
From the text: (§3) Expression of ER and Aromatase proteins was examined by Western blotting. β-actin was used as a loading control.

[3] = system: ER- MDA-MB-231 cells; assay: MTT cell viability / proliferation assay, MDA-MB-231; assay type: cell-based
Method: as §1, with “IC50” for “MTT assay was performed to measure viability of breast cancer cells after treatment with various test compounds (Sabnis et al. 2005). IC50”
as §2, with “For” for “Exemplary ER negative cell lines (MDA-MB-231) were used. For”

[4] = system: aromatase; assay: Radiometric 3H2O release assay for aromatase activity in MDA-MB-231 cells; assay type: cell-based; parameters: aromatase activity: dose or concentration left out as unconfirmed; conditions: for aromatase activity after pre-treatment: MDA-MB-231 cells
Method: The aromatase activity assay was described by Yue et al. (1997). The expression and activation of aromatase was seen after treatment with HDACi. […] This up-regulation of aromatase activity was dose dependent.
150,000 cells were plated in IMEM without PR with 5% steroid free serum, 1% penicillin-streptomycin and 750 μg/ml G418. Next day the cells were incubated with 0.5 μCi of [1β^3H] androstenedione (Specific activity 23.5 Ci/mmole) in 1 ml of media containing 1% charcoal stripped serum for 18 hours. The medium was then collected and treated with TCA (trichloroacetic acid) to precipitate proteins. The residual steroids in the medium were extracted and removed with chloroform and further treated with a 2.5% charcoal suspension. The ^3H2O in the supernatant was measured using a scintillation counter. In this assay ^3H2O is released during conversion of [1β^3H] Δ4A to estrone, catalyzed by the enzyme aromatase. For pre-treatment studies, cells were plated as described above and then next day pre-treated with indicated agent for 24 hours before incubating with [1β^3H] Δ4A for 18 hours. The activity of the enzyme is corrected for protein concentration in the cells plated and treated.

[5] = system: SKBr3; assay: MTT cell proliferation assay, SKBr3; assay type: cell-based; conditions: Her-2 status ++++, read-out: IC50 values for inhibition of ER-cell proliferation, SKBr3
Method: as §1, with “IC50” for “MTT assay was performed to measure viability of breast cancer cells after treatment with various test compounds (Sabnis et al. 2005). IC50”
as §2, with “For” for “Exemplary ER negative cell lines (MDA-MB-231) were used. For”

[6] = system: ERα; assay: Western immunoblotting for ERα protein expression in MDA-MB-231 cells; assay type: cell-based; conditions: 10 nM
From the text: Protein expression of other ER inducible genes such as c-Myc and PgR can also be examined.
as §3

[7] = system: aromatase; assay: 3H2O release assay for aromatase activity in tumor homogenates; assay type: in vivo, mice; conditions: MDA-MB-231 xenograft tumors
Method: (§4) Expression of ER and aromatase proteins was examined by Western blotting. β-actin was used as a loading control. The radiometric ^3H2O release assay for aromatase activity was performed as follows: the tumors were homogenized using ice-cold DPBS and the homogenate was used for the aromatase assay. ^3H2O release assay was performed using [1β^3H] androstenedione (Specific activity 23.5 Ci/mmole). The activity of the enzyme is corrected for protein concentration in the tumor homogenates.

[8] = system: ERα, aromatase and androgen receptor; assay: Western blotting of xenograft tumors; assay type: in vivo, mice; conditions: MDA-MB-231 xenograft tumors
Method: as §4

[9] = system: MDA-MB-231 xenografts; assay: MDA-MB-231 xenografts in female ovariectomized nude mice; assay type: in vivo
Method: The tumors of MDA-MB-231 cells were grown in female ovariectomized nude mice. Sub-confluent cells were collected into Citric Saline, centrifuged and resuspended in Matrigel (10 mg/mL) at ˜2.5×10^7 cells/mL. Each mouse received subcutaneous inoculations in two sites per flank with 100 μL of cell suspension. Mice were then injected subcutaneously daily with 0.3% HPC in 0.9% NaCl (vehicle) until the tumors reached a measurable size (˜150 mm^3). At this point the mice were grouped such that the starting tumor volumes were not statistically different across the groups. The mice were injected with indicated agents (5× weekly) for indicated time. The tumors were measured weekly with calipers and the tumor volumes were calculated using the formula (4/3)πr1^2r2(r1≦r2).

[10] = Homo sapiens, MDA-MB-231, Her-2 status −, read-out: IC50 values for inhibition of ER-cell proliferation, MDA-MB-231

CCCC(=O)O [BA, butyric acid]
IC50 ([1]; Homo sapiens, Hs-578T): 67900 µM | expression of aromatase up-regulated ([2]; 1 μM): 1.2 fold | IC50 [3, 10]: 20300 µM | IC50 ([3]; Homo sapiens, MDA-MB-231, MDA-MB-231 cells, single agent, read-out: IC50, inhibition of cell growth): 20300 µM | growth inhibitory effect ([3]; MDA-MB-231 cells, single agent): inhibited | aromatase activity after pre-treatment [4]: upregulated | IC50 ([5]; Homo sapiens, SK-BR-3): 17.2 µM

CC(=O)Nc1ccc(C(=O)Nc2ccccc2N)cc1 [CJ-994, 4-acetylamino-N-(2′-aminophenyl)-benzamide]
IC50 ([1]; Homo sapiens, Hs-578T): 0.122 µM | IC50 [3, 10]: 97.8 µM | IC50 ([5]; Homo sapiens, SK-BR-3): 8.52 µM

O=C(CCCCCCC(=O)Nc1ccccc1)NO [SAHA, N′-hydroxy-N-phenyl-octanediamide]
IC50 ([1]; Homo sapiens, Hs-578T): 0.0169 µM | expression of aromatase up-regulated ([2]; 10 nM): 1.77 fold | protein expression of ERα up-regulated [6]: 9.9 fold | aromatase activity after pre-treatment [4]: upregulated

CC(C)(C#N)c1cc(Cn2cncn2)cc(C(C)(C)C#N)c1 [anastrozole]
growth inhibitory effect ([3]; MDA-MB-231 cells, single agent): refractory

C=C1C[C@@H]2[C@H](CC[C@]3(C)C(=O)CC[C@@H]23)[C@@]2(C)C=CC(=O)C=C12 [exemestane]
growth inhibitory effect ([3]; MDA-MB-231 cells, single agent): refractory

C[C@]12CC[C@@H]3c4ccc(O)cc4C[C@@H](CCCCCCCCC[S+]([O-])CCCC(F)(F)C(F)(F)F)[C@H]3[C@@H]1CC[C@@H]2O (stereo partly drawn) [fulvestrant]
growth inhibitory effect ([3]; MDA-MB-231 cells, single agent): refractory

N#Cc1ccc(C(c2ccc(C#N)cc2)n2cncn2)cc1 [letrozole]
IC50 ([3]; Homo sapiens, MDA-MB-231, MDA-MB-231 cells, combined with MS-275 (0.1 nM), read-out: IC50 of letrozole for cell growth inhibition): 0.0154 µM | IC50 ([3]; Homo sapiens, MDA-MB-231, MDA-MB-231 cells, combined with SAHA, read-out: IC50 of letrozole for cell growth inhibition): 1.13 µM | cell growth inhibition in combination ([3]; MDA-MB-231 cells, letrozole combined with MS-275 (0.1 nM)): synergistically inhibit cell growth in a dose dependent manner | cell growth inhibition in combination ([3]; MDA-MB-231 cells, letrozole combined with SAHA): synergistically inhibit cell growth in a dose dependent manner | growth inhibitory effect ([3]; MDA-MB-231 cells, single agent): refractory; also recorded: did not inhibit growth

CC/C(=C(\c1ccccc1)c1ccc(OCCN(C)C)cc1)c1ccccc1 [tamoxifen]
growth inhibitory effect ([3]; MDA-MB-231 cells, single agent): refractory

N-(2-aminophenyl)-4-(N-(pyridin-3-ylmethoxycarbonyl)aminomethyl) benzamide [MS-275]
IC50 [1]: 0.0281 µM | expression of aromatase up-regulated ([2]; 10 nM): 2.6 fold | intra-tumoral aromatase activity [7]: upregulates intra-tumoral aromatase activity | expression of ERα, aromatase and androgen receptor in tumors [8]: upregulates | growth of MDA-MB-231 xenografts ([9]; 5x weekly dosing): inhibits growth of MDA-MB-231 xenografts | effectiveness by route of administration ([9]; oral versus other route): more effective when given orally | uterine weight ([9]; ovariectomized mice, bioassay for estrogenic/antiestrogenic effects): does not affect the uterine weight | protein expression of ERα up-regulated [6]: 8 fold | growth inhibitory effect ([3]; MDA-MB-231 cells, single agent): significantly inhibited | IC50 ([3]; MDA-MB-231 cells, single agent, read-out: IC50, growth inhibition): 0.0817 µM | aromatase activity after pre-treatment [4]: upregulated | aromatase activity ([4]; then 1β-3H-androstenedione 18 hours, basal 3.02): 15.193 pmoles/μg of protein/hour | IC50 [5]: 6.82e-05 µM
